Assay results reported in EP0987254B1, “NOVEL CYCLIC DIAMINE COMPOUNDS AND MEDICINE CONTAINING THE SAME” (Kowa Co., Ltd., priority 1997, dated 1998).
In brackets after ≈: the same amount, converted by molar mass. Read-outs that look alike come from different tables or passages of the source.

Columns and labels:
[1] = system: J774 cells; experiment: ACAT inhibitory action (anti-foaming action) in J774 cells; settings: for IC50 (HepG2) /IC50 (J774): ratio HepG2 / J774, 1080 min
Description: (§2) The medium was removed and, after washing with PBS twice, extraction was conducted with 1.5 ml of hexane : isopropanol (3:2) followed by concentrating to dryness. The extract was dissolved in 0.2 ml of isopropanol containing 10% of 10% Triton X-100 and total cholesterol (TC) and free cholesterol (FC) were determined by a Cholesterol E Test Wako (Wako Pure Chemicals) and a Free Cholesterol E Test Wako (Wako Pure Chemicals), respectively. Residue of the cells after extraction was solubilized with 0.25 ml of 2N NaOH at 30°C for 30 minutes and amount of protein was determined by means of a BCA Protein Assay Reagent (Pierce). From the difference between TC and FC, amount of cholesterol ester per protein was calculated and then IC50 was determined by means of a comparative calculation with the control.

[2] = molecular target: ACAT (blood vessel wall); experiment: ACAT inhibitory action, microsome enzyme from blood vessel wall (stethartery); assay type: biochemical, rabbits; settings: for IC50: A = the blood vessel wall, microsome from stethartery of rabbits fed 1% cholesterol feed, 14C-oleoyl-CoA, 37°C, five minutes; for IC50 (B) /IC50 (A): ratio small intestine / blood vessel wall
Description: (§1) Microsome was prepared by a conventional method from stethartery of rabbits fed for eight weeks with a 1% cholesterol feed and was suspended in a 0.15M phosphate buffer (pH 7.4) to provide an enzyme solution. An enzyme solution derived from small intestine was prepared from small intestine or rabbits fed with normal feed. […] The solvent layer was concentrated to dryness, the residue was dissolved in hexane and the solution was spotted on a TLC plate (manufactured by Merck) followed by developing with hexane : ether : acetic acid (75:25:1). Radioactivity of the resulting cholesterol ester fraction was measured by a BAS 2000 (manufactured by Fuji Photo Film) and IC50 values were determined from a comparative calculation with the control to which only DMSO was added.

[3] = molecular target: ACAT (small intestine); experiment: ACAT inhibitory action, enzyme from small intestine; assay type: biochemical; settings: B = the small intestine of rabbits fed normal feed; 14C-oleoyl-CoA, 37°C, three minutes
Description: as §1

[4] = system: HepG2 cells; experiment: ACAT inhibitory action (anti-foaming action) in HepG2 cells
Description: as §2

[5] = Disintegration test: solubility in liquid No.1 for disintegration test of the Japanese Pharmacopoeia; assay type: physicochemical; settings: jp disintegration liquid no.1; pH 1.2; liquid No.1, shaken two hours, room temperature one hour, 0.45 µm filter
Description: Absorbance of a mixture of this filtrate with methanol in the same amounts was measured and, from the previously-determined ε1% 1cm values, solubility was calculated.

[6] = Homo sapiens, HepG2, 18 h, read-out: Enzyme (HepG2) IC50(µM)
[7] = Mus musculus, J774, 18 h, read-out: Enzyme (J774) IC50(µM)

Row | SMILES | IC50 (HepG2) /IC50 (J774) [1] | IC50 [2] [nM] | IC50 (B) /IC50 (A) [2] | IC50 [3] [nM] | IC50 [4, 6] [µM] | IC50 [1, 7] [µM] | IC50 ([4]; read-out: Enzyme (HepG2) IC50, HepG2 cells, 10 µg/ml 25-OH cholesterol, 18 hours, cholesterol ester per protein) [µM] | IC50 ([1]; read-out: Enzyme (J774) IC50, J774 cells, 10 µg/ml 25-OH cholesterol, 18 hours, cholesterol ester per protein) [µM] | solubility [5] [µg/mL]
1 | COC(=O)c1cccc2oc(SCCN3CCN(CC(=O)Nc4c(C(C)C)cccc4C(C)C)CC3)nc12 [Example 5, 2-[4-[2-(4-methoxycarbonylbenzoxazol-2-ylthio)ethyl]-piperazin-1-yl]-N-(2,6-diisopropylphenyl) acetamide] | 14.5 | 56 | 2.3 | 130 |  |  |  |  | 
2 | COc1cc(C(C)C)c(NC(=O)CN2CCN(CCSc3nc4ccccc4o3)CC2)c(C(C)C)c1 [Example 75, 2-[4-[2-(benzoxazol-2-ylthio)ethyl]-piperazin-1-yl]-N-(2,6-diisopropyl-4-methoxyphenyl)-acetamide] | >100 | 38 | 5.5 | 210 | > 10 | 0.1 |  |  | 
3 | CCOCCOc1cc(C(C)C)c(NC(=O)CN2CCN(CCSc3nc4ccccc4o3)CC2)c(C(C)C)c1 [Example 78, 2-[4-[2-(benzoxazol-2-ylthio)ethyl]piperazin-1-yl]-N-[2,6-diisopropyl-4-(2-ethoxyethyl)oxyphenyl)acetamide] | 58.6 | 40 | 5.3 | 210 | 0.82 | 0.014 |  |  | 
4 | COC(=O)c1cccc2nc(SCCCN3CCN(CC(=O)Nc4c(C(C)C)cccc4C(C)C)CC3)oc12 [Example 10, 2-[4-[3-(7-methoxycarbonylbenzoxazol - 2-ylthio)propyl]piperazin-1-yl]-N-(2,6-diisopropylphenyl) acetamide] | 18.2 | 35 | 1.1 | 39 |  |  |  |  | 
5 | CCCCCCCCCN(CC(C)(C)C)C(=O)N[C@H]1CCCC[C@@H]1OC(=O)CCNC(=O)C1OC(C)(C)OCC1(C)C (stereo partly shown) [Control 3, reference compound] |  | 34 |  | 56 |  |  |  |  | 
6 | CCCCCCCN(CCCCCSc1nc(-c2ccccc2)c(-c2ccccc2)[nH]1)c1nc2ccccc2o1 [Control 4, reference compound] | 6.3 | 26 | 1.4 | 37 |  |  | 0.75 | 0.12 | 
7 | CCCC(CCCCC(=O)Nc1c(C(C)C)cccc1C(C)C)Sc1nc2ccccc2o1 (stereo not shown) [Control 5, 6-(Benzoxazol-2-ylthio)-N-(2,6-diisopropylphenyl)nonanamide] |  |  |  |  |  |  |  |  | 0.05 (≈ 0.107 µM)
8 | CC(C)c1cccc(C(C)C)c1NC(=O)CN1CCN(CCSc2nc3cccc(C(F)(F)F)c3o2)CC1 [Example 85, 2-[4-[2-(7-trifluoromethylbenzoxazol-2-ylthio)ethyl]piperazin-1-yl]-N-(2,6-diisopropylphenyl)acetamide] | >53 | 12 | 4.9 | 59 | > 1 | 0.019 |  |  | 
9 | CC(C)c1cccc(C(C)C)c1NC(=O)C(C)(C)CCCOc1ccc2c(c1)C=C(c1nccn1C)C(CCc1ccc(F)cc1)O2 (stereo not shown) [Control 1, 5-[2-(2-(4-Fluorophenyl)ethyl)-3-(1-methyl-1H-imidazol-2-yl)-2H-1-benzopyran-6-yl]oxy-2,2-dimethyl-N-(2,6-diisopropylphenyl) -pentanamide, reference compound] | 9.5 | 450 | 1.9 | 870 |  | 0.56 |  |  | 
